According to patent US20130116203A1, “ISOTHIOCYNATES AND GLUCOSINOLATE COMPOUNDS AND ANTI-TUMOR COMPOSITIONS CONTAINING SAME” (priority 2011, published 2013):

Tests used:
Assay type in all cases: cell-based
[1] = system: eight human cancer cell lines; assay: Average cytotoxicity across the human cancer cell line panel
Source text: (§1) Five serial 1:2 dilutions were made with anhydrous DMSO at 100× the final concentration used in the assay.

[2] = system: NCI/ADR RES (human breast carcinoma) cells; assay: Cell Titer-Glo cytotoxicity assay, NCI/ADR-RES
Source text: as §1

[3] = system: MCF7 (human breast carcinoma) cells; assay: Cell Titer-Glo cytotoxicity assay, MCF7; details: inferred from racemate 13 vs 2
Source text: as §1

[4] = system: NCI-H460 (human breast carcinoma) cells; assay: Cell Titer-Glo cytotoxicity assay, NCI-H460; details: inferred from racemate 13 vs 2
Source text: as §1

S=C=NCc1cccnc1 [Compound 22, 3-(isothiocyanatomethyl)pyridine]
increase in effectiveness relative to L-sulforaphane ([1]; potency in NCI/ADR RES and selectivity over NmuMG taken together): ~30 fold | fold increase in potency over 23 ([2]; NCI/ADR RES cells): ≤ 10 fold

S=C=NCc1ccccc1 [Compound 23, 1-(isothiocyanatomethyl)benzene]
fold increase in potency over fully-saturated 18 ([1]; average IC50 compared): > 3 fold

C[S@+]([O-])CCCCN=C=S [D-sulforaphane]
% bioactive [3]: 0% | % bioactive [4]: 14% | % bioactive ([2]; NCI/ADR RES, inferred from racemate 13 vs 2): 9%
